These results are taken from US20220117964A1, “COMBINATION OF FAK INHIBITOR AND BTK INHIBITOR FOR TREATING A DISEASE” (ASCENTAGE PHARMA (SUZHU) CO., LTD., priority 2019, published 2022).

In one test the test system is KYSE-150 cells. The test is described as follows: Cell migration (Transwell) assay. It counts as cell-based, human. The conditions noted are these: 1 μM Compound 5, 1 μM Ibrutinib or both. How it is done: The culture medium was sucked into a chamber of Transwell (PC membrane, pore size 8.0 μm, Corning, N.Y., USA), and then the chamber was placed in a 24-well plate containing 750 μl of 50% FBS medium. After incubation for 24 to 30 hours, the chamber was taken out, the medium in the chamber was sucked out, and the redundant cells in the chamber were wiped off with a cotton swab. The chamber was placed in paraformaldehyde to perform fixation for 15 minutes, and staining was performed with 0.5% crystal violet at room temperature for 15 minutes. Cell migration activity was described as a relative number of the cells that exited the chamber.
(§1) (1) The experimental method was as described in the items (1), (2), (5) of Example 2. […] The changes in signaling pathway of related proteins were determined by Western blotting assay.

The subject of test [1] is phosphorylated-FAK (p-FAK, Tyr397). The test is described as follows: Western blot, KYSE-150 and KYSE-520 cells. Type of test: cell-based. Particulars: KYSE-150 (1 μM Compound 5, 1 μM Ibrutinib) and KYSE-520 (1 μM Compound 5, 0.5 μM Ibrutinib), 24 hours. How it is done: The cells were lysed on ice with 1× cell lysis buffer containing 1% protease inhibitor (PMSF) and 1% phosphokinase inhibitor for 30 minutes, centrifuged at 12000 rpm and 4° C. for 15 minutes, and the supernatant protein lysate was collected. The protein concentration was measured by BCA protein concentration detection kit. The cell protein lysates (20 to 50 μg) were separated using 8-12% SDS-PAGE electrophoresis. The separated proteins were transferred to a PVDF membrane. The PVDF membrane was blocked with 5% BSA buffer at room temperature for 30 minutes to 1 hour, and then incubated overnight on a 4° C. shaker with 1× TBST containing primary antibody. The redundant primary antibody was eluted, and the membrane was washed 3 times with 1× TBST, 5 to 10 minutes for each time. The protein band membrane was incubated with horseradish peroxidase-labeled secondary antibody dilution for 1 hour at room temperature, and the membrane was washed 3 times with 1× TBST, 5 to 10 minutes for each time. The signal generation and detection were performed using an ECL chemiluminescence ultrasensitive colorimetric kit and a chemiluminescence imaging system. The primary antibodies used in this experiment included: EGFR, (CST, Cat.4267S); phosphorylated EGFR (p-EGFR (Tyr1068)), (CST, Cat.3777T); FAK, (CST, Cat.3285S); phosphorylated FAK (p-FAK (Tyr397)), (CST, Cat.8556T); AKT, (CST, Cat.4685S); phosphorylated p-AKT (Ser473), (CST, Cat.9271S); ERK, (CST,Cat.4695S); phosphorylated ERK (p-ERK (Thr202/Tyr204)), (CST, Cat.4370T); phosphorylated MEK (p-MEK (Ser217/221)), (CST, Cat.9121S);BTK, (Immunoway, Cat. YM1294); C-Myc, (CST, Cat. 5605); phosphorylated C-Myc, (CST, Cat. 13748); Cyclin B1 (CST, Cat. 12231S), Cylin D1 (CST, Cat.2978S), GAPDH (ABGENT, Cat.AM1020B). The secondary antibodies used in this experiment included goat-anti-rabbit secondary antibody (Senta, Cat. Sc-2004) and goat-anti-mouse secondary antibody (Senta, Cat. Sc-2005).
as §1

The subject of test [2] is human KYSE-150 mouse xenograft tumor model. The test is described as follows: Human KYSE-150 mouse xenograft tumor model, antitumor effect. Type of test: in vivo, BALB/c Nude mice. The conditions noted are these: for RTV on day 12 after administration (mean ± standard error): day 12 (last dose); for RTV on day 12 after administration (mean ± standard error) / T/C on day 12 after administration (%) / RTV on day 18 after administration (mean ± standard error) / T/C on day 18 after administration (%): Compound 5 100 mg/kg p.o., Ibrutinib 25 mg/kg i.p.; for RTV on day 12 after administration (mean ± standard error) / RTV on day 18 after administration (mean ± standard error): qd × 5d, withdrawal 2 days/week × 2 weeks; for Tumor state on day 12 after administration: CR: day 12, animals with complete regression of tumor / group; for Tumor state on day 12 after administration: PR: day 12, animals with partial regression of tumor / group; for Tumor state on day 12 after administration: SD: day 12, animals with stable disease / group; for RTV on day 18 after administration (mean ± standard error): day 18 (after drug withdrawal); for Tumor state on day 18 after administration: CR: day 18, animals with complete regression of tumor / group; for Tumor state on day 18 after administration: PR: day 18, animals with partial regression of tumor / group; for Tumor state on day 18 after administration: SD: day 18, animals with stable disease / group. How it is done:
The animals used were BALB/c Nude mice, 4-6 weeks old, female. Animal body weight was 14-16±20% g. The experimental animals were provided by Beijing Weitonglihua Experimental Animal Technology Co., Ltd. (Vital River Laboratories, VRL, license number: SOCK (J) 2016-0011). Animal certificate number: 11400700325794.
Compound 5 was intragastrically administered at a dose of 100 mg/kg and a volume of 200 μl. The preparation for the administration was prepared every 3 days and stored at 4° C. when it has not been in use. The formulation and use of the preparation were carried out under sterile conditions. […] The preparation for the administration was prepared every 3 days and stored at 4° C. The formulation and use of the preparation were carried out under sterile conditions.
Forty immunodeficiency mice were subcutaneously injected with 5×10^6 KYSE-150 cells suspended in 100 μl PBS in the right armpit to establish a xenograft tumor model. […] When the tumor reached an appropriate size (50 to 100 mm^3), the animals were randomly assigned according to the tumor volume, in which the difference in tumor volume among groups should be less than 10% of the mean value, and at last 7 mice were assigned to each group, and the administration was star ted on the day of group assignment (i.e., d1).
A subcutaneous immunodeficient-mice xenograft tumor model of human tumor was established by cell inoculation method: tumor cells in logarithmic growth phase were collected, counted and resuspended in 1×PBS, and the concentration of cell suspension was adjusted to 5×10^7/mL. 1 mL syringe ([…]) was used to inoculate the tumor cells subcutaneously on the right back of immunodeficient mice, 5×10^6/0.1 mL/mouse. All animal experiments were performed strictly in accordance with the guidelines for Institutional Animal Care and Use Committee (IACUC) of Sun Yat-sen University and Suzhou Yasheng Pharmaceutical Co., Ltd. The calculation of related parameters referred to China NMPA “Technical Guidelines for Nonclinical Research of Cytotoxic Antitumor Drugs”.
Animal body weight and tumor size were measured twice per week during the experiment. The growth of tumor was periodically observed, and when the tumor grew to an average volume of 50 to 100 mm^3, the mice were randomly divided into groups for administration according to tumor size and body weight. The status and deaths of the animals were observed every day. The routine monitoring included the effects of tumor growth and drug administration on the normal behaviors of animals, specially included the activity of experimental animals, food and water consumption, weight gain or loss, eyes, hair, and other abnormal conditions. The deaths and clinical symptoms observed during the experiment were recorded in the raw data. The entire operation for administration, measurement of mouse weight and tumor volume was performed in a clean bench. According to the requirements of the experimental protocol, when the long diameter of tumor was greater than 20 mm, the experimental end point was reached and the mice were euthanized. Tumor tissues were collected, weighed and photographed for recording.
Tumor volume (TV) was calculated as: TV=a×b^2/2, wherein a and b represented the measured length and width of tumor, respectively. The relative tumor volume (RTV) was calculated as: RTV=Vt/V1, wherein V1 represented the tumor volume at the time of group assignment and administration, and Vt represented the tumor volume on a certain day after administration.
On the technique in general: A xenograft is tissue or cells of one species grown in another, often human tumour cells in immunodeficient mice.

Where “and” joins values, the source holds several entries; their conditions need not be identical. Equal values may be shown once.

Consider `Cc1cc(Nc2ncc(Cl)c(Nc3ccccc3S(=O)(=O)C(C)C)n2)c(OC(C)C)cc1C1=CCN(C2CCOCC2)CC1` [Compound 5, 5-chloro-N^2-(2-isopropoxy-5-methyl-4-(1-(tetrahydro-2H-pyran-4-yl)-1,2,3,6-tetrahydropyridin-4-yl)phenyl)-N^4-(2-(isopropylsulfonyl)phenyl)pyrimidine-2,4-diamine], for which, in the test with KYSE-150 cells, the cell migration result was “cell migration in certain extent”. Further, the “protein expression level of phosphorylated-FAK (p-FAK, Tyr397)” value in test [1] was “significantly decrease”. Moreover, in test [2], the “RTV on day 12 after administration (mean ± standard error)” value was determined as 1.4; the “Tumor state on day 12 after administration: CR” value is reported as 0/7 CR; the “Tumor state on day 12 after administration: PR” value was 1/7 and 1/7 PR; the “Tumor state on day 12 after administration: SD” value is 1/7 and 1/7 SD. Also, in test [2], the “T/C on day 12 after administration (%)” value is listed as 49.8%; the “RTV on day 18 after administration (mean ± standard error)” value is given as 3.0; the “Tumor state on day 18 after administration: CR” value was 0/7 CR; the “Tumor state on day 18 after administration: PR” value is 1/7 and 1/7 PR. In test [2], the “Tumor state on day 18 after administration: SD” value is on record as 0/7 SD and the “T/C on day 18 after administration (%)” value worked out at 55.8%.

Turning to `C=CC(=O)N1CCC[C@@H](n2nc(-c3ccc(Oc4ccccc4)cc3)c3c(N)ncnc32)C1` [Ibrutinib], in the test with KYSE-150 cells, the cell migration result was “cell migration in certain extent”. In addition, in test [2], the “RTV on day 12 after administration (mean ± standard error)” value is 1.4; the “Tumor state on day 12 after administration: CR” value is 0/7 CR; the “Tumor state on day 12 after administration: PR” value is 1/7 and 1/7 PR; the “Tumor state on day 12 after administration: SD” value is 1/7 and 1/7 SD. In test [2], the “T/C on day 12 after administration (%)” value came to 48.6%; the “RTV on day 18 after administration (mean ± standard error)” value is reported as 3.8; the “Tumor state on day 18 after administration: CR” value is listed as 0/7 CR; the “Tumor state on day 18 after administration: PR” value was “no animal and 0/7 PR”. Besides, in test [2], the “Tumor state on day 18 after administration: SD” value is “no animal and 0/7 SD”; the “T/C on day 18 after administration (%)” value is reported as 70.2%. Moreover, the “Tumor state on day 18 after administration: remission rate, %” value in test [2] (day 18, remission including CR, PR and SD) is “(0%)”.
